Target: T1, Bcl-2 protein (Recombinant Human Bcl-2 Protein) (Homo sapiens, UniProt P10415)
T1 construct: purchased Novus NBP2-34889
Test: Binding evaluation of mixture library compounds to Bcl-2 using AS-MS (affinity selection mass spectrometry)
Conditions: for ASMS ratio (%) n = 1 / ASMS ratio (%) n = 2: AS-MS, mixture library, Bcl-2, ASMS Ratio(%)=(A−C)/B×100; for ASMS ratio (%) n = 1: replicate n = 1; for ASMS ratio (%) n = 2: replicate n = 2
Method in brief: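 Readout is ASMS Ratio (%), (A−C)/B×100, from reversed-phase LC/MS of SEC-passed extracts, with protein-free unfiltered standard (B) and protein-free SEC blank (C). Recombinant human Bcl-2 at 20 μM final met ~1200 pooled compounds at […] each for 1 h, 23° C., dark, in Tris-HCl pH 7.4 buffer.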

T1 sequence (P10415 whole entry): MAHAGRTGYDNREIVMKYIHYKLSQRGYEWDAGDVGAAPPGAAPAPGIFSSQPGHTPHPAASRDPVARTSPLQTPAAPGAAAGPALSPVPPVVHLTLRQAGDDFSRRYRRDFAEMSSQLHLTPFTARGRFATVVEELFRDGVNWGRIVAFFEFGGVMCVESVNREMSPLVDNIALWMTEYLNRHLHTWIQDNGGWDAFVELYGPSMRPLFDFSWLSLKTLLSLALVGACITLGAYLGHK

| Structure (SMILES) | ASMS ratio (%) n = 1 | ASMS ratio (%) n = 2 | ASMS ratio (%) (n = 1) | ASMS ratio (%) (n = 2) |
| --- | --- | --- | --- | --- |
| CCOc1cncc(-c2ccccc2CCC(=O)N2CCN(c3ccc(C(=O)NS(C)(=O)=O)cc3)CC2)c1 [B2I034-01, 4-[4-[3-[2-(5-Ethoxypyridin-3-yl)phenyl]propanoyl]piperazin-1-yl]-N-methylsulfonylbenzamide] | 0.0% | 1.6% |  |  |
| CCOc1cccc(-c2ccc(C(=O)N3CCN(c4ccc(C(=O)NS(C)(=O)=O)cc4)CC3)c3ccccc23)c1 [B2I035-01, 4-[4-[4-(3-Ethoxyphenyl)naphthalene-1-carbonyl]piperazin-1-yl]-N-methylsulfonylbenzamide] | 0.0% | 1.6% |  |  |
| CCOc1cncc(-c2ccc(C(=O)N3CCN(c4ccc(C(=O)NS(C)(=O)=O)cc4)CC3)c3ccccc23)c1 [B2I036-01, 4-[4-[4-(5-Ethoxypyridin-3-yl)naphthalene-1-carbonyl]piperazin-1-yl]-N-methylsulfonylbenzamide] | −0.7% | 1.5% |  |  |
| CCOc1cccc(-c2cc(C(=O)N3CCN(c4ccc(C(=O)NS(C)(=O)=O)cc4)CC3)cc(C(C)(C)C)c2)c1 [B2I037-01, 4-[4-[3-tert-Butyl-5-(3-ethoxyphenyl)benzoyl]piperazin-1-yl]-N-methylsulfonylbenzamide] | 0.0% | 3.3% |  |  |
| CCOc1cncc(-c2cc(C(=O)N3CCN(c4ccc(C(=O)NS(C)(=O)=O)cc4)CC3)cc(C(C)(C)C)c2)c1 [B2I038-01, 4-[4-[3-tert-Butyl-5-(5-ethoxypyridin-3-yl)benzoyl]piperazin-1-yl]-N-methylsulfonylbenzamide] | 0.0% | 0.0% |  |  |
| CCOc1cccc(C#Cc2cc(C(=O)N3CCN(c4ccc(C(=O)NS(C)(=O)=O)cc4)CC3)cc(C(F)(F)F)c2)c1 [B2I041-01, 4-[4-[3-[2-(3-Ethoxyphenyl)ethynyl]-5-(trifluoromethyl)benzoyl]piperazin-1-yl]-N-methylsulfonylbenzamide] |  |  | 0.0% | 0.0% |
| CCOc1cncc(C#Cc2cc(C(=O)N3CCN(c4ccc(C(=O)NS(C)(=O)=O)cc4)CC3)cc(C(F)(F)F)c2)c1 [B2I042-01, 4-[4-[3-[2-(5-Ethoxypyridin-3-yl)ethynyl]-5-(trifluoromethyl)benzoyl]piperazin-1-yl]-N-methylsulfonylbenzamide] |  |  | 0.0% | 0.0% |
| CCOc1cccc(-c2cnn(-c3cc(C(=O)N4CCN(c5ccc(C(=O)NS(C)(=O)=O)cc5)CC4)cc(C(F)(F)F)c3)c2)c1 [B2I043-01, 4-[4-[3-[4-(3-Ethoxyphenyl)pyrazol-1-yl]-5-(trifluoromethyl)benzoyl]piperazin-1-yl]-N-methylsulfonylbenzamide] |  |  | 0.0% | 0.0% |
| CCOc1cncc(-c2cnn(-c3cc(C(=O)N4CCN(c5ccc(C(=O)NS(C)(=O)=O)cc5)CC4)cc(C(F)(F)F)c3)c2)c1 [B2I044-01, 4-[4-[3-[4-(5-Ethoxypyridin-3-yl)pyrazol-1-yl]-5-(trifluoromethyl)benzoyl]piperazin-1-yl]-N-methylsulfonylbenzamide] |  |  | 0.0% | 0.0% |
| CCOc1cccc(-c2ccccc2CN2CCN(c3ccc(C(=O)NS(C)(=O)=O)cc3)CC2)c1 [B2I045-01, 4-[4-[[2-(3-Ethoxyphenyl)phenyl]methyl]piperazin-1-yl]-N-methylsulfonylbenzamide] |  |  | −0.3% | 0.2% |
| CCOc1cncc(-c2ccccc2CN2CCN(c3ccc(C(=O)NS(C)(=O)=O)cc3)CC2)c1 [B2I046-01, 4-[4-[[2-(5-Ethoxypyridin-3-yl)phenyl]methyl]piperazin-1-yl]-N-methylsulfonylbenzamide] |  |  | −0.6% | 1.5% |
| CCOc1cccc(-c2ccc(CN3CCN(c4ccc(C(=O)NS(C)(=O)=O)cc4)CC3)cc2C)c1 [B2I047-01] |  |  | 0.8% | 1.4% |
| CCOc1cncc(-c2ccc(CN3CCN(c4ccc(C(=O)NS(C)(=O)=O)cc4)CC3)cc2C)c1 [B2I048-01, 4-[4-[[4-(5-Ethoxypyridin-3-yl)-3-methylphenyl]methyl]piperazin-1-yl]-N-methylsulfonylbenzamide] |  |  | 0.0% | 0.0% |
| CCOc1cccc(-c2ccc(CN3CCN(c4ccc(C(=O)NS(C)(=O)=O)cc4)CC3)c(CC)c2)c1 [B2I049-01, 4-[4-[[4-(3-Ethoxyphenyl)-2-ethylphenyl]methyl]piperazin-1-yl]-N-methylsulfonylbenzamide] |  |  | 0.0% | 0.0% |
| CCOc1cncc(-c2ccc(CN3CCN(c4ccc(C(=O)NS(C)(=O)=O)cc4)CC3)c(CC)c2)c1 [B2I050-01, 4-[4-[[4-(5-Ethoxypyridin-3-yl)-2-ethylphenyl]methyl]piperazin-1-yl]-N-methylsulfonylbenzamide] |  |  | 0.0% | −1.5% |
| CCOc1cccc(-c2ccc(CN3CCN(c4ccc(C(=O)NS(C)(=O)=O)cc4)CC3)cc2F)c1 [B2I051-01, 4-[4-[[4-(3-Ethoxyphenyl)-3-fluorophenyl]methyl]piperazin-1-yl]-N-methylsulfonylbenzamide] |  |  | 0.0% | 0.0% |

| Structure (SMILES) | ASMS ratio (%) n = 1 | ASMS ratio (%) n = 2 | ASMS ratio (%) (n = 1) | ASMS ratio (%) (n = 2) |
| --- | --- | --- | --- | --- |
| CCOc1cncc(-c2ccc(CN3CCN(c4ccc(C(=O)NS(C)(=O)=O)cc4)CC3)cc2F)c1 [B2I052-01, 4-[4-[[4-(5-Ethoxypyridin-3-yl)-3-fluorophenyl]methyl]piperazin-1-yl]-N-methylsulfonylbenzamide] |  |  | 0.0% | 0.0% |
| CCOc1cccc(-c2ccc(CN3CCN(c4ccc(C(=O)NS(C)(=O)=O)cc4)CC3)c(OC)c2)c1 [B2I053-01] |  |  | 0.0% | 0.0% |
| CCOc1cncc(-c2ccc(CN3CCN(c4ccc(C(=O)NS(C)(=O)=O)cc4)CC3)c(OC)c2)c1 [B2I054-01, 4-[4-[[4-(5-Ethoxypyridin-3-yl)-2-methoxyphenyl]methyl]piperazin-1-yl]-N-methylsulfonylbenzamide] |  |  | 0.0% | 0.0% |
| CCOc1cccc(-c2cc(CN3CCN(c4ccc(C(=O)NS(C)(=O)=O)cc4)CC3)cc(OCC)c2)c1 [B2I055-01, 4-[4-[[3-Ethoxy-5-(3-ethoxyphenyl)phenyl]methyl]piperazin-1-yl]-N-methylsulfonylbenzamide] |  |  | 0.0% | 0.0% |
| CCOc1cncc(-c2cc(CN3CCN(c4ccc(C(=O)NS(C)(=O)=O)cc4)CC3)cc(OCC)c2)c1 [B2I056-01] |  |  | 0.0% | 0.0% |
| CCOc1cccc(-c2cc(CN3CCN(c4ccc(C(=O)NS(C)(=O)=O)cc4)CC3)cc(OC(C)C)c2)c1 [B2I057-01, 4-[4-[[3-(3-Ethoxyphenyl)-5-propan-2-yloxyphenyl]methyl]piperazin-1-yl]-N-methylsulfonylbenzamide] |  |  | 0.0% | 0.0% |
| CCOc1cncc(-c2cc(CN3CCN(c4ccc(C(=O)NS(C)(=O)=O)cc4)CC3)cc(OC(C)C)c2)c1 [B2I058-01, 4-[4-[[3-(5-Ethoxypyridin-3-yl)-5-propan-2-yloxyphenyl]methyl]piperazin-1-yl]-N-methylsulfonylbenzamide] |  |  | 0.0% | 0.0% |
| CCOc1cccc(-c2cc(OC)c(CN3CCN(c4ccc(C(=O)NS(C)(=O)=O)cc4)CC3)c(OC)c2)c1 [B2I059-01] |  |  | 0.0% | 0.0% |
| CCOc1cncc(-c2cc(OC)c(CN3CCN(c4ccc(C(=O)NS(C)(=O)=O)cc4)CC3)c(OC)c2)c1 [B2I060-01] |  |  | 0.0% | 0.0% |
| CCOc1cccc(-c2cc(CN3CCN(c4ccc(C(=O)NS(C)(=O)=O)cc4)CC3)cc(C(F)(F)F)c2)c1 [B2I061-01, 4-[4-[[3-(3-Ethoxyphenyl)-5-(trifluoromethyl)phenyl]methyl]piperazin-1-yl]-N-methylsulfonylbenzamide] |  |  | −0.8% | 0.5% |
| CCOc1cncc(-c2cc(CN3CCN(c4ccc(C(=O)NS(C)(=O)=O)cc4)CC3)cc(C(F)(F)F)c2)c1 [B2I062-01, 4-[4-[[3-(5-Ethoxypyridin-3-yl)-5-(trifluoromethyl)phenyl]methyl]piperazin-1-yl]-N-methylsulfonylbenzamide] |  |  | 0.0% | 0.0% |
| CCOc1cccc(-c2cc(CN3CCN(c4ccc(C(=O)NS(C)(=O)=O)cc4)CC3)cc(OC(F)(F)F)c2)c1 [B2I063-01, 4-[4-[[3-(3-Ethoxyphenyl)-5-(trifluoromethoxy)phenyl]methyl]piperazin-1-yl]-N-methylsulfonylbenzamide] |  |  | 0.9% | 0.0% |
| CCOc1cncc(-c2cc(CN3CCN(c4ccc(C(=O)NS(C)(=O)=O)cc4)CC3)cc(OC(F)(F)F)c2)c1 [B2I064-01, 4-[4-[[3-(5-Ethoxypyridin-3-yl)-5-(trifluoromethoxy)phenyl]methyl]piperazin-1-yl]-N-methylsulfonylbenzamide] |  |  | 0.0% | 0.0% |
| CCOc1cccc(-c2ccc(CN3CCN(c4ccc(C(=O)NS(C)(=O)=O)cc4)CC3)c3ccccc23)c1 [B2I065-01, 4-[4-[[4-(3-Ethoxyphenyl)naphthalen-1-yl]methyl]piperazin-1-yl]-N-methylsulfonylbenzamide] |  |  | 0.0% | 0.0% |
| CCOc1cncc(-c2ccc(CN3CCN(c4ccc(C(=O)NS(C)(=O)=O)cc4)CC3)c3ccccc23)c1 [B2I066-01, 4-[4-[[4-(5-Ethoxypyridin-3-yl)naphthalen-1-yl]methyl]piperazin-1-yl]-N-methylsulfonylbenzamide] |  |  | 0.0% | 0.0% |
